Reference: patent EP0167385B1, “Antiviral compounds, treatment and formulations” (THE WELLCOME FOUNDATION LIMITED, priority 1984, dated 1986)
Read-outs that look alike come from different tables or passages of the source.

Experiments:
HSV-1 = details: concentrations up to 100 ug; Ogilvy et al, Nucleosides and Nucleotides (1983); cited from earlier work
human CMV = assay: plaque reduction assay in human foreskin fibroblast monolayers; type: cell-based; details: for EC50: Human betaherpesvirus 5, Fibroblast, 192 h, Human Foreskin Fibroblasts, 8 days, read-out: ED₅₀
Protocol: Confluent monolayers of human diploid fibroblast cells (i.e., human foreskin fibroblast cells) were infected with 200-300 µL of a suspension containing 50-100 human CMV infectious virions per culture well and allowed to incubate for 90 minutes at 37 degrees C in a CO₂ incubator. Unadsorbed virus was then removed by aspiration and appropriate concentrations of 1-[2-hydroxy-1-(hydroxymethyl)ethoxymethyl] cytosine were added in Eagle's Minimal Essential Media containing 2% fetal calf serum in an agarose overlay (0.6%). The assay plates were incubated at 37 degrees C in a CO₂ incubator for 8 days to allow plaque development. The monolayers were then fixed with 10% formalin in phosphate buffered saline and stained wth 0.8% crystal violet. The plaques were counted at 3x magnification using a Bausch and Lomb dissecting microscope, and the data were analysed by SAS Probit (SAS Institute, Inc., Cary, N.C., U.S.A.) to give the following results: […]

Epstein-Barr Virus (EBV) = assay: EBV-specific cRNA-DNA hybridization, EBV genome equivalents in P3HR-1 cells; type: cell-based
Protocol: 1-[2-Hydroxy-1-(hydroxymethyl)ethoxymethyl]cytosine was assayed for activity against Epstein-Barr Virus (EBV) using an adaptaion of the procedure described in Nature New Biology, 233, 103-106 (1971). This technique, employing an EBV-specific cRNA-DNA hybridization on filter membranes, detects the amount of EBV genome equivalents produced in the virus-producing cell lines. In this assay the EBV-producing cell line […]-1 (ATCC HTB 62) was exposed to various concentrations of 1-[2-hydroxy-1-(hydroxymethyl)-ethoxymethyl]cytosine for 14 days and EBV genome equivalents per cell were then determined to give an ED50 of approximately 0.05 μM.

VZV = assay: antiviral test against VZV; details: antiviral tests, general statement
[1] = toxicity in mice after administration by gavage; type: in vivo; details: 44.5 mg per kg by gavage, suspension in 5% Tween 80, 28 male CD-1 mice
Protocol: The compound of formula (II) was administered to 28 male CD-1 mice by gavage. The dose was 44.5 mg per kg of body weight and was in suspension in 5% Tween 80 at a concentration of 5 mg/ml.

[2] = urine levels after oral administration, mice; type: in vivo; details: compared with oral administration of the compound of formula (I) itself
[3] = urine levels after oral administration, rats; type: in vivo; details: compared with oral administration of the compound of formula (I) itself
[4] = antiviral tests, general statement

Row | EC50 (Epstein-Barr Virus (EBV); human gammaherpesvirus 4, 336 h, P3HR-1 (ATCC HTB 62) cells exposed for 14 days, read-out: ED₅₀ (EBV genome equivalents per cell)) [nM] | SMILES | activity against HSV-1 (HSV-1) | EC50 (human CMV; Virus Strain ATCC VR-538 (strain AD169)) [nM] | EC50 (human CMV; Virus Strain Kerr) [nM] | activity against CMV (human CMV; [4]) | activity against EBV (Epstein-Barr Virus (EBV); [4]) | activity against VZV (VZV) | signs of toxicity [1] | body fluid levels of the compound of formula (I), as demonstrated by urine levels [2] | body fluid levels of the compound of formula (I), as demonstrated by urine levels [3]
1 | ~50 | Nc1ccn(COC(CO)CO)c(=O)n1 [1-[2-Hydroxy-1-(hydroxymethyl)ethoxymethyl]cytosine] | no activity | 3700 ± 700 | 1900 ± 200 | surprisingly good activity | surprisingly good activity | surprisingly good activity |  |  | 
2 |  | CC(C)(C)C(=O)OCC(COC(=O)C(C)(C)C)OCn1ccc(N)nc1=O [compound of formula (II), 2-[(4-Amino-1,2-dihydro-2-oxo-1-pyrimidinyl)methoxy]-1,3-propanediyl Dipivalate] |  |  |  |  |  |  | No signs of toxicity were observed | substantially higher | substantially higher
